The record followed here is US7282469B2, “4-trifluoromethylpyrazolyl-substituted pyridines and pyrimidines” (Bayer CropScience GmbH, priority 2002, dated 2007).

Structures are written as SMILES.

One data set deals with Alopecurus myosuroides. The experiment in a line: Weed plant herbicidal activity, pre-emergence. The class given is in vivo. The settings on record: 20 g of active substance per hectare, visual scoring after 3 to 4 weeks. The text has this: (§1) 1. Weed Plant Herbicidal Activity and Crop Plant Tolerance, Pre-emergence
(§2) Seeds of monocotyledonous and dicotyledonous weed plants and also of crop plants are placed in sandy loam soil in cardboard pots and are covered with soil. The compounds of the invention, formulated as wettable powders or emulsifiable concentrates, are then applied as an aqueous suspension or emulsion, respectively, and at different dosages to the surface of the covering soil at an application rate of 600 to 800 l of water per ha (converted). Following treatment, the pots are placed in a greenhouse and kept under good growth conditions for the weeds. Visual scoring of the plant damage or emergence damage is made after the test plants have emerged, after an experimental period of 3 to 4 weeks, in comparison with untreated controls. In this case, for example, the compounds of the invention from examples nos. 1.7 and 4.1 at a dosage of 320 g of active substance per hectare display a 100% activity against Digitaria sanguinalis, Setaria viridis and Amaranthus retroflexus. At the same dosage these compounds of the invention cause no damage to the crop plants Oryza sativa (rice) and Glycine max (soybean). The compound of the invention from example no. […] At the same dosage this compound of the invention causes no damage to the crop plants Oryza sativa (rice), Zea mays (maize) and Glycine max (soybean). At a dosage of 320 g of active substance per hectare, the compound of the invention from example no.

A further data set has as its system Amaranthus retroflexus. The data set can be described thus: Weed plant herbicidal activity, pre-emergence. The following applies: visual scoring after 3 to 4 weeks. It is filed as in vivo.
Source text: as §1, §2

A further data set deals with Digitaria sanguinalis. The experiment in a line: Weed plant herbicidal activity, pre-emergence. The class given is in vivo. The settings on record: 320 g of active substance per hectare, visual scoring after 3 to 4 weeks.
Source text: as §1, §2

The subject of another data set is Setaria viridis. The data set can be described thus: Weed plant herbicidal activity, pre-emergence. It is filed as in vivo. The settings on record: visual scoring after 3 to 4 weeks.
Source text: as §1, §2

The subject of another data set is Veronica persica. The experiment in a line: Weed plant herbicidal activity, pre-emergence. The class given is in vivo. The following applies: 20 g of active substance per hectare, visual scoring after 3 to 4 weeks.
Source text: as §1, §2

The subject of a further data set is Glycine max (soybean). The experiment in a line: Crop plant tolerance, pre-emergence. The class given is in vivo.
Source text: as §1, §2

The subject of a further data set is Oryza sativa (rice). The data set can be described thus: Crop plant tolerance, pre-emergence. The class given is in vivo.
Source text: as §1, §2

The test system of a further data set is Zea mays (maize). The data set can be described thus: Crop plant tolerance, pre-emergence. The class given is in vivo. The following applies: 20 g of active substance per hectare.
Source text: as §1, §2

The mark [1] stands for this setting: 20 g of active substance per hectare.
Where [2] appears, read: 320 g of active substance per hectare.

Consider `Cc1cnc(-n2cc(C(F)(F)F)cn2)nc1Oc1cccc(C(F)(F)F)c1` [Example 1.7, 5-methyl-4-(3-trifluoromethylphenoxy)-2-(4-trifluoromethyl-1H-1-pyrazolyl)pyrimidine], for which the melting point was in the range of 103 to 105 °C. Also, in the data set with Alopecurus myosuroides, the “activity against Alopecurus myosuroides” value is on record as “at least 90%”. The “activity against Amaranthus retroflexus” value in the data set with Amaranthus retroflexus (setting [1]) is reported as “at least 90%”. Also, the “activity against Amaranthus retroflexus” value in the data set on Amaranthus retroflexus (setting [2]) was 100%. For the same compound, in the data set with Digitaria sanguinalis, the “activity against Digitaria sanguinalis” value is recorded as 100%. Besides, the “activity against Setaria viridis” value with Setaria viridis (setting [1]) is on record as “at least 90%”. Also, the “activity against Setaria viridis” value in the data set with Setaria viridis (setting [2]) stood at 100%. The “activity against Veronica persica” value with Veronica persica is recorded as “at least 90%”. In addition, the “damage to the crop plant Glycine max (soybean)” value in the data set on Glycine max (soybean) (setting [1]) is reported as “no damage”. Moreover, the “damage to the crop plant Glycine max (soybean)” value in the data set on Glycine max (soybean) (setting [2]) is “no damage”. For the same compound, the “damage to the crop plant Oryza sativa (rice)” value with Oryza sativa (rice) (setting [1]) is “no damage”. The “damage to the crop plant Oryza sativa (rice)” value in the data set with Oryza sativa (rice) (setting [2]) is given as “no damage”. For the same compound, the “damage to the crop plant Zea mays (maize)” value in the data set on Zea mays (maize) is listed as “no damage”.
